Tested on: yeast genes (expressed mRNA)
Test: DNA chip measurement of expressed mRNA of yeast genes after culture with a toxic chemical substance
Type: cell-based, Saccharomyces cerevisiae S288C
Procedure, shortened: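 Yeast S288C, YPD 25° C; toxicant at log phase, 2 h, sublethal growth-inhibiting conc.; no-chemical control. Hot SDS/acetate RNA extraction, oligo-dT mRNA, Cy3/Cy5-dUTP RT. Whole-genome chip, 65° C >12 h. Readout: treated/control intensity ratio, ≥2 significant.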

CN(C)C(=S)SSC(=S)N(C)C [(10), Tetramethylthiuram disulfide]
The level of expressed mRNA in the presence of chemical substance/The level of expressed mRNA in the absence of chemical substance (yeast gene YJL152W, cultured two hours with substance): 1.0
The level of expressed mRNA in the presence of chemical substance/The level of expressed mRNA in the absence of chemical substance (yeast gene YJL161W, cultured two hours with substance): 2.1
The level of expressed mRNA in the presence of chemical substance/The level of expressed mRNA in the absence of chemical substance (yeast gene YJL171C, cultured two hours with substance): 1.7
The level of expressed mRNA in the presence of chemical substance/The level of expressed mRNA in the absence of chemical substance (yeast gene YJL186W, cultured two hours with substance): 0.5
The level of expressed mRNA in the presence of chemical substance/The level of expressed mRNA in the absence of chemical substance (yeast gene YJR008W, cultured two hours with substance): 1.9
The level of expressed mRNA in the presence of chemical substance/The level of expressed mRNA in the absence of chemical substance (yeast gene YJR010W): 11.1
The level of expressed mRNA in the presence of chemical substance/The level of expressed mRNA in the absence of chemical substance (yeast gene YJR054W, cultured two hours with substance): 0.6
The level of expressed mRNA in the presence of chemical substance/The level of expressed mRNA in the absence of chemical substance (yeast gene YJR155W): 18.8
The level of expressed mRNA in the presence of chemical substance/The level of expressed mRNA in the absence of chemical substance (yeast gene YJR155W, cultured for two hours with substance): 18.8
The level of expressed mRNA in the presence of chemical substance/The level of expressed mRNA in the absence of chemical substance (yeast gene YKL070W): 11.0
The level of expressed mRNA in the presence of chemical substance/The level of expressed mRNA in the absence of chemical substance (yeast gene YKL071W, cultured two hours with substance): 109.2
The level of expressed mRNA in the presence of chemical substance/The level of expressed mRNA in the absence of chemical substance (yeast gene YKL086W, cultured two hours with substance): 20.5
The level of expressed mRNA in the presence of chemical substance/The level of expressed mRNA in the absence of chemical substance (yeast gene YKL151C, cultured two hours with substance): 3.5
The level of expressed mRNA in the presence of chemical substance/The level of expressed mRNA in the absence of chemical substance (yeast gene YKL153W, cultured two hours with substance): 1.4
The level of expressed mRNA in the presence of chemical substance/The level of expressed mRNA in the absence of chemical substance (yeast gene YKL195W, cultured two hours with substance): 2.1
The level of expressed mRNA in the presence of chemical substance/The level of expressed mRNA in the absence of chemical substance (yeast gene YKR076W): 43.1
The level of expressed mRNA in the presence of chemical substance/The level of expressed mRNA in the absence of chemical substance (yeast gene YKR091W, cultured two hours with substance): 1.6
The level of expressed mRNA in the presence of chemical substance/The level of expressed mRNA in the absence of chemical substance (yeast gene YLL060C (detoxification protein gene)): 23.2
The level of expressed mRNA in the presence of chemical substance/The level of expressed mRNA in the absence of chemical substance (yeast gene YLL060C (stress protein genes)): 23.2
The level of expressed mRNA in the presence of chemical substance/The level of expressed mRNA in the absence of chemical substance (yeast gene YLR054C, cultured two hours with substance): 1.1
The level of expressed mRNA in the presence of chemical substance/The level of expressed mRNA in the absence of chemical substance (yeast gene YLR108C): 10.4
The level of expressed mRNA in the presence of chemical substance/The level of expressed mRNA in the absence of chemical substance (yeast gene YLR149C, cultured two hours with substance): 5.2
The level of expressed mRNA in the presence of chemical substance/The level of expressed mRNA in the absence of chemical substance (yeast gene YLR152C, cultured two hours with substance): 1.1
The level of expressed mRNA in the presence of chemical substance/The level of expressed mRNA in the absence of chemical substance (yeast gene YLR194C, cultured two hours with substance): 1.1
The level of expressed mRNA in the presence of chemical substance/The level of expressed mRNA in the absence of chemical substance (yeast gene YLR217W, cultured two hours with substance): 8.2
The level of expressed mRNA in the presence of chemical substance/The level of expressed mRNA in the absence of chemical substance (yeast gene YLR324W, cultured two hours with substance): 1.4
The level of expressed mRNA in the presence of chemical substance/The level of expressed mRNA in the absence of chemical substance (yeast gene YLR350W, cultured two hours with substance): 1.4
The level of expressed mRNA in the presence of chemical substance/The level of expressed mRNA in the absence of chemical substance (yeast gene YLR387C, cultured two hours with substance): 3.0
The level of expressed mRNA in the presence of chemical substance/The level of expressed mRNA in the absence of chemical substance (yeast gene YLR460C, cultured two hours with substance): 31.6
The level of expressed mRNA in the presence of chemical substance/The level of expressed mRNA in the absence of chemical substance (yeast gene YML117W, cultured two hours with substance): 1.4
The level of expressed mRNA in the presence of chemical substance/The level of expressed mRNA in the absence of chemical substance (yeast gene YML131W): 17.7
The level of expressed mRNA in the presence of chemical substance/The level of expressed mRNA in the absence of chemical substance (yeast gene YMR009W, cultured two hours with substance): 2.2
The level of expressed mRNA in the presence of chemical substance/The level of expressed mRNA in the absence of chemical substance (yeast gene YMR034C, cultured two hours with substance): 2.7
The level of expressed mRNA in the presence of chemical substance/The level of expressed mRNA in the absence of chemical substance (yeast gene YMR067C, cultured two hours with substance): 3.5
The level of expressed mRNA in the presence of chemical substance/The level of expressed mRNA in the absence of chemical substance (yeast gene YMR090W, cultured two hours with substance): 6.1
The level of expressed mRNA in the presence of chemical substance/The level of expressed mRNA in the absence of chemical substance (yeast gene YMR095C, cultured two hours with substance): 1.4
The level of expressed mRNA in the presence of chemical substance/The level of expressed mRNA in the absence of chemical substance (yeast gene YMR097C, cultured two hours with substance): 2.1
The level of expressed mRNA in the presence of chemical substance/The level of expressed mRNA in the absence of chemical substance (yeast gene YMR102C, cultured two hours with substance): 2.6
The level of expressed mRNA in the presence of chemical substance/The level of expressed mRNA in the absence of chemical substance (yeast gene YMR107W, cultured two hours with substance): 17.1
The level of expressed mRNA in the presence of chemical substance/The level of expressed mRNA in the absence of chemical substance (yeast gene YMR140W, cultured two hours with substance): 2.3
The level of expressed mRNA in the presence of chemical substance/The level of expressed mRNA in the absence of chemical substance (yeast gene YMR180C, cultured two hours with substance): 2.2
The level of expressed mRNA in the presence of chemical substance/The level of expressed mRNA in the absence of chemical substance (yeast gene YMR184W, cultured two hours with substance): 0.9
The level of expressed mRNA in the presence of chemical substance/The level of expressed mRNA in the absence of chemical substance (yeast gene YMR191W, cultured two hours with substance): 3.5
The level of expressed mRNA in the presence of chemical substance/The level of expressed mRNA in the absence of chemical substance (yeast gene YMR251W, cultured two hours with substance): 11.6
The level of expressed mRNA in the presence of chemical substance/The level of expressed mRNA in the absence of chemical substance (yeast gene YMR295C, cultured two hours with substance): 0.8
The level of expressed mRNA in the presence of chemical substance/The level of expressed mRNA in the absence of chemical substance (yeast gene YMR316W, cultured two hours with substance): 3.0
The level of expressed mRNA in the presence of chemical substance/The level of expressed mRNA in the absence of chemical substance (yeast gene YMR322C, cultured two hours with substance): 10.3
The level of expressed mRNA in the presence of chemical substance/The level of expressed mRNA in the absence of chemical substance (yeast gene YNL044W, cultured two hours with substance): 0.8
The level of expressed mRNA in the presence of chemical substance/The level of expressed mRNA in the absence of chemical substance (yeast gene YNL074C, cultured two hours with substance): 2.0
